From the supplement of paper PMC10307832

Key:
Test in all cases: relative viability (nuclei count vs DMSO), 5 days (fraction); higher = more cells survive
Venetoclax + Phenformin = compound: CC1(C)CCC(CN2CCN(c3ccc(C(=O)NS(=O)(=O)c4ccc(NCC5CCOCC5)c([N+](=O)[O-])c4)c(Oc4cnc5[nH]ccc5c4)c3)CC2)=C(c2ccc(Cl)cc2)C1 [Venetoclax] + N=C(N)NC(=N)NCCc1ccccc1 [Phenformin] (partner 250 µM)
Method in brief: (§1)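 Relative viability equals treated-well nuclei counts divided by vehicle-well nuclei counts. Counts came from 4× images of lung cancer cell lines grown in 1536-well plates for 5 days after pin-tool dosing on the day after seeding. Dosing used one drug alone or a fixed anchor-drug dose plus five library-drug doses (not always all listed) in √10 steps, and values are medians of duplicate plates.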

Selumetinib + Lapatinib = compound: Cn1cnc2c(F)c(Nc3ccc(Br)cc3Cl)c(C(=O)NOCCO)cc21 [Selumetinib] + CS(=O)(=O)CCNCc1ccc(-c2ccc3ncnc(Nc4ccc(OCc5cccc(F)c5)c(Cl)c4)c3c2)o1 [Lapatinib] (partner 2 µM)
Method in brief: as §1

Selumetinib + Bortezomib = compound: Cn1cnc2c(F)c(Nc3ccc(Br)cc3Cl)c(C(=O)NOCCO)cc21 [Selumetinib] + CC(C)C[C@H](NC(=O)[C@H](Cc1ccccc1)NC(=O)c1cnccn1)B(O)O [Bortezomib] (partner 0.002 µM)
Method in brief: as §1

Venetoclax + Tozasertib = compound: CC1(C)CCC(CN2CCN(c3ccc(C(=O)NS(=O)(=O)c4ccc(NCC5CCOCC5)c([N+](=O)[O-])c4)c(Oc4cnc5[nH]ccc5c4)c3)CC2)=C(c2ccc(Cl)cc2)C1 [Venetoclax] + Cc1cc(Nc2cc(N3CCN(C)CC3)nc(Sc3ccc(NC(=O)C4CC4)cc3)n2)n[nH]1 [Tozasertib] (partner 0.1 µM)
Method in brief: as §1

Cell Line | relative viability (Venetoclax + Phenformin; first compound 0.01 µM) | relative viability (Venetoclax + Phenformin; first compound 0.03162 µM) | relative viability (Venetoclax + Phenformin; first compound 0.1 µM) | relative viability (Venetoclax + Phenformin; first compound 0.3162 µM) | relative viability (Venetoclax + Phenformin; first compound 1 µM) | relative viability (Selumetinib + Lapatinib; first compound 0.02 µM) | relative viability (Selumetinib + Lapatinib; first compound 0.06325 µM) | relative viability (Selumetinib + Lapatinib; first compound 0.2 µM) | relative viability (Selumetinib + Lapatinib; first compound 0.6325 µM) | relative viability (Selumetinib + Bortezomib; first compound 0.02 µM) | relative viability (Selumetinib + Bortezomib; first compound 0.06325 µM) | relative viability (Selumetinib + Bortezomib; first compound 0.2 µM) | relative viability (Selumetinib + Bortezomib; first compound 0.6325 µM) | relative viability (Venetoclax + Tozasertib; first compound 0.01 µM) | relative viability (Venetoclax + Tozasertib; first compound 0.03162 µM) | relative viability (Venetoclax + Tozasertib; first compound 0.1 µM) | relative viability (Venetoclax + Tozasertib; first compound 0.3162 µM) | relative viability (Venetoclax + Tozasertib; first compound 1 µM)
NCI-H838 | 0.63 | 0.591 | 0.448 | 0.636 | 0.507 | 0.838 | 0.732 | 0.861 | 0.671 | 0.695 | 0.59 | 0.679 | 0.513 | 0.254 | 0.246 | 0.303 | 0.238 | 0.239
NCI-H1355 | 0.436 | 0.474 | 0.467 | 0.468 | 0.412 | 0.959 | 0.785 | 0.693 | 0.558 | 1.18 | 1.17 | 0.884 | 0.822 | 0.548 | 0.62 | 0.482 | 0.549 | 0.42
NCI-H1437 | 0.377 | 0.348 | 0.266 | 0.34 | 0.296 | 0.588 | 0.528 | 0.351 | 0.252 | 0.486 | 0.378 | 0.316 | 0.276 | 0.392 | 0.426 | 0.408 | 0.376 | 0.336
NCI-H1650 | 0.515 | 0.479 | 0.541 | 0.534 | 0.377 | 0.704 | 0.639 | 0.704 | 0.721 | 0.199 | 0.172 | 0.215 | 0.222 | 0.456 | 0.409 | 0.427 | 0.406 | 0.299
NCI-H1651 | 0.373 | 0.327 | 0.287 | 0.329 | 0.342 | 0.691 | 0.768 | 0.763 | 0.752 | 1.08 | 0.861 | 0.873 | 0.818 | 0.751 | 0.681 | 0.636 | 0.639 | 0.599
NCI-H1666 | 0.546 | 0.605 | 0.531 | 0.582 | 0.56 | 0.506 | 0.286 | 0.351 | 0.477 | 0.595 | 0.586 | 0.63 | 0.495 | 0.706 | 0.589 | 0.623 | 0.622 | 0.587
NCI-H1734 | 0.396 | 0.446 | 0.326 | 0.411 | 0.358 | 1.12 | 1.02 | 1.09 | 1.04 | 1.04 | 0.819 | 1.02 | 0.835 | 0.275 | 0.241 | 0.216 | 0.269 | 0.239
NCI-H1755 | 0.645 | 0.616 | 0.573 | 0.629 | 0.555 | 0.971 | 0.953 | 0.91 | 0.998 | 0.952 | 0.859 | 0.834 | 0.914 | 0.569 | 0.504 | 0.586 | 0.593 | 0.547
NCI-H1915 | 0.362 | 0.385 | 0.354 | 0.376 | 0.375 | 1.06 | 0.93 | 0.831 | 0.682 | 1.07 | 0.877 | 0.747 | 0.617 | 0.452 | 0.454 | 0.392 | 0.433 | 0.427
